Source: ChEMBL document CHEMBL1268973, “Flavonoids from Dracocephalum tanguticum and their cardioprotective effects against doxorubicin-induced toxicity in H9c2 cells” (Bioorg Med Chem Lett, 2010)
Calls of active or inactive are those of the source. No cut-off for these calls is given here.

Tests used:
[1] = tested on: Radical scavenging activity; assay: Antioxidant activity of the compound assessed as DPPH radical scavenging activity after 30 mins; format: functional
[2] = Antioxidant activity assessed as ABTS radical scavenging activity; format: functional
H9c2 [3] = assay: Cytoprotective activity against doxorubicin-induced cytotoxicity in rat H9c2 cells assessed as cell viability after 24 hrs by MTT assay; format: functional, cell-based
[4] = Antioxidant activity assessed as ferrous ion chelating activity; format: functional
H9c2 [5] = assay: Cytoprotective activity against in rat H9c2 cells assessed as inhibition of doxorubicin-induced cell death after 24 hrs by MTT assay; format: functional, cell-based
H9c2 [6] = assay: Cytoprotective activity against rat H9c2 cells assessed as reduction in doxorubicin-induced CK release at 5 to 20 uM after 24 hrs; format: functional, cell-based
H9c2 [7] = assay: Cytoprotective activity against rat H9c2 cells assessed as reduction in doxorubicin-induced LDH release at 5 to 20 uM after 24 hrs; format: functional, cell-based
H9c2 [8] = assay: Cytoprotective activity against rat H9c2 cells assessed as inhibition of doxorubicin-induced morphological changes at 10 to 40 uM after 24 hrs; format: functional, cell-based
H9c2 [9] = assay: Cytoprotective activity against rat H9c2 cells assessed as inhibition of doxorubicin-induced intracellular ROS elevation at 5 to 20 uM after 24 hrs; format: functional, cell-based
H9c2 [10] = assay: Cytoprotective activity against rat H9c2 cells assessed as inhibition of doxorubicin-induced intracellular Ca2+ elevation; format: functional, cell-based
H9c2 [11] = assay: Effect on doxorubicin-induced total apoptosis in rat H9c2 cells at 20 uM; format: functional, cell-based
[12] = Rattus norvegicus, H9c2, 24 h, read-out: EC50

Structure (SMILES) | EC50 [1] [µM] | EC50 [2] [µM] | EC50 [4] [µM] | EC50 (H9c2 [3]; h9c2) | EC50 (H9c2 [3]; [12]) [µM] | other results
COc1ccc(-c2cc(=O)c3c(O)cc(O[C@@H]4O[C@H](CO)[C@@H](O)[C@H](O)[C@H]4O)cc3o2)cc1 [TILIANINE] | 95 | 400 | – | Not Active | – | –
COc1cc2oc(-c3ccc(O)c(O)c3)cc(=O)c2c(O)c1O[C@@H]1O[C@H](COC(C)=O)[C@@H](O)[C@H](O)[C@H]1O | 95.2 | 76.2 | 1130 | – | 19.1 | –
COc1cc2oc(-c3ccc(O)cc3)cc(=O)c2c(O)c1O[C@@H]1O[C@H](COC(C)=O)[C@@H](O)[C@H](O)[C@H]1O | 113 | 12.3 | 4510 | Not Active | – | –
O=C1C[C@@H](c2ccc(O)cc2)Oc2cc(O)cc(O)c21 [NARINGENIN] | 72.3 | 13.5 | 21400 | Not Active | – | –
COc1cc2oc(-c3ccc(O)cc3)cc(=O)c2c(O)c1O[C@@H]1O[C@H](CO)[C@@H](O)[C@H](O)[C@H]1O | 159 | 581 | – | Not Active | – | –
O=c1cc(-c2ccc(O)c(O)c2)oc2cc(O)cc(O)c12 [LUTEOLIN] | 6.12 | 105 | 12000 | – | 5.53 | –
O=C1C[C@@H](c2ccc(O)c(O)c2)Oc2cc(O)cc(O)c21 [ERIODICTYOL] | 98.8 | 1.15 | 8370 | – | 25.5 | –

The next lines start with results.

EC50 [1] [µM] | EC50 [2] [µM] | EC50 [4] [µM] | Structure (SMILES) | EC50 (H9c2 [3]; h9c2) | EC50 (H9c2 [3]; [12]) [µM] | other results
40.6 | 18.1 | – | O=C1C[C@@H](c2ccc(O)cc2)Oc2cc(O[C@@H]3O[C@H](CO)[C@@H](O)[C@H](O)[C@H]3O)cc(O)c21 [PRUNIN] | Not Active | – | –
3.94 | 56.5 | 1100 | O=c1cc(-c2ccc(O)c(O)c2)oc2cc(O[C@@H]3O[C@H](CO)[C@@H](O)[C@H](O)[C@H]3O)cc(O)c12 [GALUTEOLIN] | – | 5.04 | Activity (H9c2 [5]): inactive; Activity (H9c2 [6]): Active; Activity (H9c2 [7]): Active; Activity (H9c2 [8]): Active; Activity (H9c2 [9]): Active; Activity (H9c2 [10]): Dose-dependent effect; Activity (H9c2 [11]): inactive
13.2 | 87.8 | 3310 | CCOC(=O)[C@H]1O[C@@H](Oc2cc(O)c3c(=O)cc(-c4ccc(O)c(O)c4)oc3c2)[C@H](O)[C@@H](O)[C@@H]1O | – | 6.34 | –
32.1 | 16.3 | 161000 | O=C1C[C@@H](c2cc(O)cc(O)c2)Oc2cc(O)cc(O)c21 | Not Active | – | –
20.4 | 13.1 | – | O=c1cc(-c2ccc(O)cc2)oc2cc(O[C@@H]3O[C@H](CO)[C@@H](O)[C@H](O)[C@H]3O)cc(O)c12 [APIGETRIN] | – | 12.3 | –
81.2 | 86.1 | 27600 | COc1cc2oc(-c3ccc(O)c(O)c3)cc(=O)c2c(O)c1O[C@@H]1O[C@H](CO)[C@@H](O)[C@H](O)[C@H]1O | Not Active | – | –
20 | 13.4 | – | COc1cc2oc(-c3ccc(O)cc3)cc(=O)c2c(O)c1O | Not Active | – | –
15.6 | 7.26 | 213000 | O=C1C[C@@H](c2ccc(O)c(O)c2)Oc2cc(O[C@@H]3O[C@H](CO)[C@@H](O)[C@H](O)[C@H]3O)cc(O)c21 | – | 38.2 | –
31 | 15.7 | 60 | COc1cc2oc(-c3ccc(O)c(O[C@@H]4O[C@H](CO)[C@@H](O)[C@H](O)[C@H]4O)c3)cc(=O)c2c(O)c1O | – | 13.1 | –
